Experimental data as given in paper PMC10544575, “Inhibitory mechanism of vortioxetine on CYP450 enzymes in human and rat liver microsomes” (Frontiers in Pharmacology, 2023).
Like-named read-outs stand apart in the source and are kept apart here.

How the values were obtained:
Type in all cases: in vitro ADME
CYP2C9 [1] = target: T1, CYP2C9 (Homo sapiens, UniProt P11712); test: IC50 of vortioxetine on CYP2C9 (losartan) in HLMs; design: 0.20 mg/mL HLMs; from tissue; host or cells: human liver microsomes
Procedure: (§1) The components of the incubation system were as follows: 0.20 mg/mL HLMs or 0.20 mg/mL RLMs, 0.1 M Tris-HCl, vortioxetine, and the probe substrates of each enzyme. In the study of Km’s (Michaelis–Menten constant) experiment, midazolam (1, 2, 5, 10, 20, 50 and 100 μM in HLMs and RLMs) corresponded to CYP3A4/3A; bupropion (10, 20, 50, 100, 200, 500, 1,000 and 2000 μM in HLMs; 1, 2, 5, 10, 20, 50, 100 and 200 μM in RLMs) corresponded to CYP2B6/2B; amodiaquine (5, 10, 20, 50, 100 and 200 μM in HLMs; 10, 20, 50, 100, 200, 500 μM in RLMs) corresponded to CYP2C8/CYP2C-1; losartan (1, 2, 5, 10, 20, 50, 100, 200 μM in HLMs; 10, 20, 50, 100, 200, 500 and 1,000 μM in RLMs) corresponded to CYP2C9/CYP2C-2; mephenytoin (20, 50, 100, 200, 500 and 1,000 μM in HLMs; 5, 10, 20, 50, 100, 200, 500 and 1,000 μM in RLMs) corresponded to CYP2C19/CYP2C-3; and dextromethorphan (1, 2, 5, 10, 20, 50 and 100 μM in HLMs and RLMs) corresponded to CYP2D6/CYP2D. […]
(§2) All experiments results were detected by UPLC-MS/MS, which equipped with a Waters Acquity UPLC system (Milford, MA, United States) and a Waters Xevo TQ-S triple quadrupole tandem mass spectrometer with an electrospray ionization source (Milford, MA, United States). […]
(§3) IC50 values and enzyme kinetic parameters were calculated by Graphpad Prism 6.0 (GraphPad software Inc., CA, United States). […] Data for each experiment were expressed as mean ± SD (n = 3).

CYP2C-2 = test: IC50 of vortioxetine on CYP2C-2 (losartan) in RLMs; details: rat, rat liver microsomes, probe losartan
Procedure: as §1, §2, §3

CYP2C9 [2] = target: T1, CYP2C9; test: IC50-shift experiment, CYP2C9 in HLMs; design: 0.20 mg/mL HLMs or 0.20 mg/mL RLMs; from tissue; host or cells: human liver microsomes; details: for IC50: losartan 8 μM
Procedure: as §1, with “CYP2D6/CYP2D. After 5.0 min of preincubation in the shaking water bath, the reaction was started with the addition of 1.0 mM NADPH. The incubated temperature at 37°C for 30 min. After the incubation, the enzyme reaction was stopped by cooling at −80°C, and 200 μL of acetonitrile and 20 μL of internal standard diazepam (200 ng/mL) were added for protein precipitation.” for “CYP2D6/CYP2D.”
IC50-shift was used to investigate whether the drug produced time-dependent inhibition (TDI) of the enzyme. […] During the experiment, the individual substrates midazolam (4 μM), bupropion (40 μM), amodiaquine (3 μM), losartan (8 μM), mephenytoin (90 μM), and dextromethorphan (10 μM) were determined with vortioxetine IC50-shift in HLMs. […]
as §2, §3

CYP2C8 = target: T2, CYP2C8 (Homo sapiens, UniProt P10632); test: IC50 of vortioxetine on CYP2C8 (amodiaquine) in HLMs; design: 0.20 mg/mL HLMs; from tissue; host or cells: human liver microsomes
T2 sequence (P10632 1-490): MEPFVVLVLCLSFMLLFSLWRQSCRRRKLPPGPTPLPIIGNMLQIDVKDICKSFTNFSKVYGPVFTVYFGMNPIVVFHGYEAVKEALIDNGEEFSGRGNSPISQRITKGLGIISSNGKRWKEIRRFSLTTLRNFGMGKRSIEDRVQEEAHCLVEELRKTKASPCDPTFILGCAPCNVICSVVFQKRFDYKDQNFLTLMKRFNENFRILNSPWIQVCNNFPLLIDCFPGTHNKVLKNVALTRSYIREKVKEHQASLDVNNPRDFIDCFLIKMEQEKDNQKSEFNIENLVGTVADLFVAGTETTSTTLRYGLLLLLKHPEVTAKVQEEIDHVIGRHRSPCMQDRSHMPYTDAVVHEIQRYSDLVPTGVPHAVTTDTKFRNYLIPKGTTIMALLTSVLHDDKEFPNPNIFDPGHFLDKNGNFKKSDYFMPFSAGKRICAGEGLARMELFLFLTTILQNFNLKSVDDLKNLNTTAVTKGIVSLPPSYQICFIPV
Procedure: as §1, §2, §3

CYP3A = test: IC50-shift experiment, CYP3A in RLMs; details: rat, rat liver microsomes, probe midazolam; for IC50 at 30 min: midazolam 3.5 μM
[3] = inhibitory effect (strength judged by IC50), HLMs
[4] = 30 min preincubation with 1.0 mM NADPH
[5] = 30 min preincubation without NADPH

T1 sequence (P11712 whole entry): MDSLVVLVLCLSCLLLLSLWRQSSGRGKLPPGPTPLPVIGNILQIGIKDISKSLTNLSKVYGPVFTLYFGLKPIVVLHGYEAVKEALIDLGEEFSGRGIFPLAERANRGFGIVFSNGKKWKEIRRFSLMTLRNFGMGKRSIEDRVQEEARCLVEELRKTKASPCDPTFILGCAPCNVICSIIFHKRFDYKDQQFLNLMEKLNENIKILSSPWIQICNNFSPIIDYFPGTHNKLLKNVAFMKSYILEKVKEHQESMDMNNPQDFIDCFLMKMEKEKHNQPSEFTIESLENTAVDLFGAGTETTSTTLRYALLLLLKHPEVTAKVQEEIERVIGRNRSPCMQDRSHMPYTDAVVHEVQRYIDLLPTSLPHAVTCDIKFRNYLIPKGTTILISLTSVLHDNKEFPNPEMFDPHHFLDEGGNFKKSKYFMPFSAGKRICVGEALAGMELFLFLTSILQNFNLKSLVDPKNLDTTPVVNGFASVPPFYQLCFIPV

IC50 (CYP2C9 [1]; HLMs 0.20 mg/mL, losartan at Km, 37°C, 30 min, read-out: IC50): 23 µM
IC50 (CYP2C9 [1]; [3]): > 10 µM
IC50 at 30 min (CYP2C-2; RLMs 0.20 mg/mL, losartan at Km, 37°C, 30 min, read-out: IC50): 0.37 µM
IC50 at 30 min (CYP2C-2; inhibitory effect (strength judged by IC50), RLMs): < 1 µM
IC50 (CYP2C9 [2]; [4]): 16.7 µM
IC50 (CYP2C9 [2]; [5]): 18.6 µM
IC50 (CYP2C8; HLMs 0.20 mg/mL, amodiaquine at Km, 37°C, 30 min, read-out: IC50): 15 µM
IC50 (CYP2C8; [3]): > 10 µM
IC50 at 30 min (CYP3A; [4]): 16.4 µM
IC50 at 30 min (CYP3A; [5]): 20.9 µM
SMILES: Cc1ccc(Sc2ccccc2N2CCNCC2)c(C)c1 [vortioxetine]
IC50 shift at 30 min (CYP2C9 [2]; human, human liver microsomes, probe losartan (8 μM), ratio IC50 (−) NADPH to IC50 (+) NADPH, read-out: IC50 fold shift): 1.11
IC50 shift at 30 min (CYP3A; ratio IC50 (−) NADPH to IC50 (+) NADPH, read-out: IC50 fold shift): 1.28
